According to patent US20100249019A1, “USE OF A PEPTIDE AS A THERAPEUTIC AGENT” (priority 2007, published 2010):
No end group written: not given here.

Key:
[1] = tested on: hepatitis B virus (HBV) ayw strain; assay: HBV experimental assay system (HepG2-2.2.15, TaqMan PCR of HBV DNA); format: cell-based; settings: 10 micrograms per ml; six days; HBV DNA vs virus control
murine spleen cells = assay: Th1/Th2 cytokine profiling assay (Ovalbumin-restimulated spleen cells, CBA kit); format: cell-based, Balb/c mice; settings: 10 micrograms per ml; 72 hours
Description: The Balb/c mice (originated in 1923, it is a popular strain and is used in many different research disciplines. Also classified as an inbred from the production of 20 or more successive brother-sister matings, the Balb/c mouse is albino and small in size) were immunized on Days 1, 15, and 29 with Ovalbumin (Ovalbumin is the main protein found in egg white, commonly used to stimulate an immunological reaction in test animals) in PBS (5 micrograms/injection). On day 50, spleens of the mice were harvested (3 weeks after last boost with Ovalbumin). […] Thereafter, additional Ovalbumin was added to the cells at 10 micrograms/ml for in vitro restimulation of the cells. 72 hours later, cell supernatants were harvested and assayed using the Becton Dickinson Mouse Th1/Th2 Cytokine CBA Kit.

[2] = tested on: Primary Human endothelial cells (HUVEC); assay: Endothelial cell migration assay; format: cell-based; settings: 10 micrograms per ml; 22 hours
HUVEC = assay: Endothelial tube formation assay; format: cell-based, human; settings: 10 micrograms per ml; 20 hours
Protocol: The endothelial tube formation assay is based on the ability of endothelial cells to form three-dimensional capillary-like tubular structures when cultured on a gel of basement membrane extract. The endothelial tube formation assay represents a powerful model for studying inhibition and induction of angiogenesis. Pre-labeled HUVEC with Calcein AM were seeded in a 96-well culture plate coated with extracellular metrix (Chemicon international Cat. ECM625) and treated with test peptides—10 micrograms per ml—in full growth medium. Positive control wes vehicle only. The endothelial cells were allowed to form tubes foe 20 hours and were then examined under an inverted fluorescent microscope. Duplicate wells for each treatment were photographed and quantitatevily analyzed for an average tubule length using image analysis software ImageProPlus. Raw data were expressed as average tubule lengths in pixels±standard deviation. Statistic p values were computed using the Student's t-test.

HCMV strain AD169 = assay: HCMV plaque formation assay in MRC-5 cells; settings: 10 micrograms per ml, 7-10 days
RAW 264.7 cells = assay: Phagocytosis assay (Fluorescein-labeled Escherichia coli, flow cytometry); settings: 10 micrograms per ml; 30 min preincubation, 60 min ingestion

With “Val-Pro-Leu-Pro-Ala-Gly-Gly-Gly-Thr-Val-Leu-Thr-Lys-Met-Tyr-Pro-Arg-Gly-Asn-His-Trp-Ala-Val-Gly-His-Leu-Met-NH2 (VPLPAGGGTVLTKMYPRGNHWAVGHLM-NH2) [Peptide 2]” the “inhibition of HBV replication on tested liver cells” value [1] was 30.6%, the “change of the production of IFN-γ” value (murine spleen cells) was “did not significantly change” and the “change of the production of IL-2” value (murine spleen cells) was “did not significantly change”. The “change of the production of IL-4” value (murine spleen cells) was “did not significantly change”, the “change of the production of TNF-alpha” value (murine spleen cells) was “did not significantly change” and the “decrease of the production of IL-5” value (murine spleen cells) was 34.0%. The “induction of the production of IL-2” value (murine spleen cells) was 67.3%, the “inhibition of the migration of human endothelial cells” value [2] was 26% and the “inhibition of the tube formation of human endothelial cells” value (HUVEC) was “do not inhibit”. For the same substance, the “inhibition of HCMV plaque formation as compared to the virus control” value (HCMV strain AD169) was 4.0% and the “induction of phagocytosis as compared to control” value (RAW 264.7 cells) was 42.9%.
